According to patent publication US20250381198A1 (Melt Pharmaceuticals, Inc., priority 2024, published 2025):
Marks after values point to notes of the source that are not given here.

Test system: subjects undergoing cataract extraction with lens replacement (CELR)
Assay: Phase 3: adverse events (safety analysis set)
Assay type: in vivo, human
Procedure: The safety of MELT-300 was performed at baseline, in the course of surgery (intraoperatively), postoperatively on Day 1, and on Day 3+1 day post dose of study medication. Safety assessment included monitoring of AEs, vital sign measurements, and physical examinations.
An overview of adverse events (AEs) is provided in TABLE 57 for the safety analysis set. Reported data includes an overall summary of the presence of any AEs, treatment-emergent ocular adverse events (TEAEs), treatment-related TEAEs, TEAE of special interest (TEAESI), serious AEs (SEAs), and treatment-emergent SAEs (TESAE). Categories were not mutually exclusive. Results include the number of subjects, percent of subjects, and number of events in each category, respectively. A summary of treatment-emergence adverse events (TEAEs) by location, system organ class, and preferred term for the safety analysis set is provided in TABLE 58. A summary of treatment-related treatment-emergent adverse events (TRTEAEs) by system organ class, and preferred term for the safety analysis set is provided in TABLE 59. No SAEs (overall), TESAEs, or treatment-related TESAEs were observed. No SAEs resulting in death or discontinuation of the study was observed.

[1] = Location: Ocular, Safety analysis set
[2] = Location: Overall, Safety Analysis Set
[3] = Location: Overall, Safety analysis set

`Cc1ncc2n1-c1ccc(Cl)cc1C(c1ccccc1F)=NC2` [Midazolam, 8-chloro-6-(2-fluorophenyl)-1-methyl-4H-imidazo[1,5-a][1,4]benzodiazepine] was tested. Which “Any Unexpected Treatment-Related TEAE, subjects” value [1] did it give?
Its value is 0 n (%).

What about the “TEAESI: Abuse-related AEs, events” value [1] of the same compound?
The value was 0 #.

And the “TEAESI: Abuse-related AEs, subjects” value [1]?
The value was 0 n (%).

And the “TEAESI: Cardiovascular AEs, events” value [1]?
Its value is 0 #.

What about the “TEAESI: Cardiovascular AEs, subjects” value [1] of the same compound?
Its value is 1 (1.1) n (%).

What about the “TEAESI: Ketamine emergence delirium, events” value [1] of the same compound?
The value was 0 #.

And the “TEAESI: Ketamine emergence delirium, subjects” value [1]?
The value was 0 n (%).

And the “TEAESI: Neurocognitive AEs, events” value [1]?
Its value is 0 #.

And the “TEAESI: Neurocognitive AEs, subjects” value [1]?
Its value is 0 n (%).

And the “TEAESI: Oral/pharyngeal AEs, events” value [1]?
The value was 0 #.

What about the “TEAESI: Oral/pharyngeal AEs, subjects” value [1] of the same compound?
The value was 0 n (%).

What about the “TEAESI: Oversedation requiring the use of flumazenil, events” value [1] of the same compound?
Its value is 0 #.

What about the “TEAESI: Oversedation requiring the use of flumazenil, subjects” value [1] of the same compound?
The value was 0 n (%).

And the “TEAESI: Respiratory AEs, events” value [1]?
The value was 0 #.

What about the “TEAESI: Respiratory AEs, subjects” value [1] of the same compound?
The value was 1 (1.1) n (%).

What about the “TEAE: Abnormal sensation in eye” value [2] of the same compound?
Its value is 0 n.

And the “TEAE: Amnesia” value [2]?
The value was 0 n.

What about the “TEAE: Anxiety” value [2] of the same compound?
Its value is 0 n.

What about the “TEAE: Back pain” value [2] of the same compound?
The value was 0 n.

And the “TEAE: Balance disorder” value [2]?
The value was 0 n.

And the “TEAE: Blood pressure increased” value [2]?
The value was 0 n.

And the “TEAE: Blood pressure systolic increased” value [2]?
The value was 0 n.

And the “TEAE: Bradycardia” value [2]?
Its value is 0 n.

What about the “TEAE: Corneal abrasion” value [2] of the same compound?
Its value is 0 n.

What about the “TEAE: Corneal oedema” value [2] of the same compound?
Its value is 0 n.

And the “TEAE: Cough” value [2]?
Its value is 0 n.

And the “TEAE: Dental local anaesthesia” value [2]?
Its value is 0 n.

What about the “TEAE: Diplopia” value [2] of the same compound?
The value was 0 n.

What about the “TEAE: Dizziness” value [2] of the same compound?
The value was 0 n.

What about the “TEAE: Fatigue” value [2] of the same compound?
The value was 0 n.

What about the “TEAE: Gastrointestinal disorders (System Organ Class)” value [2] of the same compound?
Its value is 0 n.

And the “TEAE: Glare” value [2]?
Its value is 0 n.

What about the “TEAE: Hiccups” value [2] of the same compound?
The value was 0 n.

What about the “TEAE: Hypertension” value [2] of the same compound?
The value was 0 n.

What about the “TEAE: Hypoaesthesia oral” value [2] of the same compound?
Its value is 0 n.

What about the “TEAE: Infections and infestations (System Organ Class)” value [2] of the same compound?
The value was 0 n.

What about the “TEAE: Injury, poisoning and procedural complications (System Organ Class)” value [2] of the same compound?
Its value is 0 n.

What about the “TEAE: Instillation site pain” value [2] of the same compound?
Its value is 0 n.

And the “TEAE: Investigations (System Organ Class)” value [2]?
Its value is 0 n.

And the “TEAE: Lacrimation increased” value [2]?
Its value is 0 n.

What about the “TEAE: Lethargy” value [2] of the same compound?
Its value is 0 n.

And the “TEAE: Musculoskeletal and connective tissue disorders (System Organ Class)” value [2]?
Its value is 0 n.

What about the “TEAE: Myalgia” value [2] of the same compound?
Its value is 0 n.

What about the “TEAE: Nasal Discomfort” value [2] of the same compound?
Its value is 0 n.

And the “TEAE: Nausea” value [2]?
The value was 0 n.

What about the “TEAE: Neck pain” value [2] of the same compound?
The value was 0 n.

What about the “TEAE: Ocular discomfort” value [2] of the same compound?
The value was 0 n.

What about the “TEAE: Oxygen saturation decreased” value [2] of the same compound?
Its value is 0 n.

What about the “TEAE: Photophobia” value [2] of the same compound?
The value was 0 n.

What about the “TEAE: Photopsia” value [2] of the same compound?
Its value is 0 n.

And the “TEAE: Post procedural hypotension” value [2]?
Its value is 0 n.

What about the “TEAE: Procedural nausea” value [2] of the same compound?
The value was 0 n.

And the “TEAE: Procedural pain” value [2]?
Its value is 0 n.

And the “TEAE: Procedural vomiting” value [2]?
Its value is 0 n.

And the “TEAE: Product after taste” value [2]?
The value was 0 n.

What about the “TEAE: Product issues (System Organ Class)” value [2] of the same compound?
Its value is 0 n.

What about the “TEAE: Psychiatric disorders (System Organ Class)” value [2] of the same compound?
Its value is 0 n.

What about the “TEAE: Pyrexia” value [2] of the same compound?
Its value is 0 n.

And the “TEAE: Sinusitis” value [2]?
The value was 0 n.

And the “TEAE: Surgical and medical procedures (System Organ Class)” value [2]?
Its value is 0 n.

And the “TEAE: Taste disorder” value [2]?
Its value is 0 n.

What about the “TEAE: Vascular disorders (System Organ Class)” value [2] of the same compound?
The value was 0 n.

And the “TEAE: Visual field defect” value [2]?
The value was 0 n.

And the “TEAE: Visual impairment” value [2]?
Its value is 0 n.

What about the “Any AE, events” value [3] of the same compound?
The value was 24 #.

What about the “Any AE, subjects” value [3] of the same compound?
Its value is 16 (18.0) n (%).

What about the “Any Grade 3+ TEAE, events” value [3] of the same compound?
Its value is 0 #.

And the “Any Grade 3+ TEAE, subjects” value [3]?
Its value is 0 n (%).

What about the “Any SAE, events” value [3] of the same compound?
The value was 0 #.

What about the “Any SAE, subjects” value [3] of the same compound?
Its value is 0 n (%).

And the “Any TEAE Resulting in Death, events” value [3]?
The value was 0 #.

What about the “Any TEAE Resulting in Death, subjects” value [3] of the same compound?
Its value is 0 n (%).

What about the “Any TEAE Resulting in Study Drug Interruption, events” value [3] of the same compound?
Its value is 0 #.

And the “Any TEAE Resulting in Study Drug Interruption, subjects” value [3]?
Its value is 0 n (%).

And the “Any TEAE Resulting in Study Drug Withdrawal, events” value [3]?
Its value is 0 #.

What about the “Any TEAE Resulting in Study Drug Withdrawal, subjects” value [3] of the same compound?
The value was 0 n (%).

And the “Any TEAE, events” value [3]?
The value was 20 #.

And the “Any TEAE, subjects” value [3]?
Its value is 13 (14.6) n (%).

What about the “Any TEAESI, events” value [3] of the same compound?
Its value is 2 #.

And the “Any TEAESI, subjects” value [3]?
Its value is 2 (2.2) n (%).

And the “Any TESAE, events” value [3]?
The value was 0 #.

And the “Any TESAE, subjects” value [3]?
The value was 0 n (%).

And the “Any Treatment-Related TEAE Resulting in Death, events” value [3]?
Its value is 0 #.

What about the “Any Treatment-Related TEAE Resulting in Death, subjects” value [3] of the same compound?
Its value is 0 n (%).

And the “Any Treatment-Related TEAE, events” value [3]?
The value was 4 #.

And the “Any Treatment-Related TEAE, subjects” value [3]?
Its value is 2 (2.2) n (%).

What about the “Any Treatment-Related TEAESI, events” value [3] of the same compound?
Its value is 1 #.

And the “Any Treatment-Related TEAESI, subjects” value [3]?
The value was 1 (1.1) n (%).

What about the “Any Treatment-Related TESAE, events” value [3] of the same compound?
Its value is 0 #.

What about the “Any Treatment-Related TESAE, subjects” value [3] of the same compound?
Its value is 0 n (%).

And the “Any Unexpected TEAE, events” value [3]?
Its value is 9 #.

And the “Any Unexpected TEAE, subjects” value [3]?
Its value is 6 (6.7) n (%).

And the “Any Unexpected Treatment-Related TEAE, events” value [3]?
Its value is 0 #.

And the “Any Unexpected Treatment-Related TEAE, subjects” value [3]?
The value was 0 n (%).

What about the “TEAESI: Abuse-related AEs, events” value [3] of the same compound?
The value was 0 #.

And the “TEAESI: Abuse-related AEs, subjects” value [3]?
The value was 0 n (%).

And the “TEAESI: Cardiovascular AEs, events” value [3]?
The value was 1 #.

What about the “TEAESI: Cardiovascular AEs, subjects” value [3] of the same compound?
Its value is 1 (1.1) n (%).

What about the “TEAESI: Ketamine emergence delirium, events” value [3] of the same compound?
The value was 0 #.

And the “TEAESI: Ketamine emergence delirium, subjects” value [3]?
Its value is 0 n (%).

What about the “TEAESI: Neurocognitive AEs, events” value [3] of the same compound?
The value was 0 #.

And the “TEAESI: Neurocognitive AEs, subjects” value [3]?
Its value is 0 n (%).

What about the “TEAESI: Oral/pharyngeal AEs, events” value [3] of the same compound?
Its value is 0 #.

And the “TEAESI: Oral/pharyngeal AEs, subjects” value [3]?
Its value is 0 n (%).

And the “TEAESI: Oversedation requiring the use of flumazenil, events” value [3]?
Its value is 0 #.

And the “TEAESI: Oversedation requiring the use of flumazenil, subjects” value [3]?
The value was 0 n (%).

And the “TEAESI: Respiratory AEs, events” value [3]?
The value was 1 #.

And the “TEAESI: Respiratory AEs, subjects” value [3]?
The value was 1 (1.1) n (%).

And the “Treatment-related TEAE: Anxiety” value (Safety Analysis Set)?
The value was 0 n.

And the “Treatment-related TEAE: Blood pressure increased” value (Safety Analysis Set)?
The value was 0 n.

And the “Treatment-related TEAE: Bradycardia” value (Safety Analysis Set)?
Its value is 0 n.

And the “Treatment-related TEAE: Cardiac disorders (System Organ Class)” value (Safety Analysis Set)?
The value was 0 n.

What about the “Treatment-related TEAE: Dental local anaesthesia” value (Safety Analysis Set) of the same compound?
Its value is 0 n.

And the “Treatment-related TEAE: Dizziness” value (Safety Analysis Set)?
Its value is 0 n.

What about the “Treatment-related TEAE: Eye disorders (System Organ Class)” value (Safety Analysis Set) of the same compound?
Its value is 0 n.

What about the “Treatment-related TEAE: Hiccups” value (Safety Analysis Set) of the same compound?
The value was 0 n.

What about the “Treatment-related TEAE: Injury, poisoning and procedural complications (System Organ Class)” value (Safety Analysis Set) of the same compound?
The value was 0 n.

And the “Treatment-related TEAE: Investigations (System Organ Class)” value (Safety Analysis Set)?
Its value is 0 n.

And the “Treatment-related TEAE: Lethargy” value (Safety Analysis Set)?
The value was 0 n.

And the “Treatment-related TEAE: Oxygen saturation decreased” value (Safety Analysis Set)?
The value was 0 n.

And the “Treatment-related TEAE: Procedural nausea” value (Safety Analysis Set)?
The value was 0 n.

And the “Treatment-related TEAE: Procedural vomiting” value (Safety Analysis Set)?
The value was 0 n.

What about the “Treatment-related TEAE: Product after taste” value (Safety Analysis Set) of the same compound?
Its value is 0 n.

And the “Treatment-related TEAE: Product issues (System Organ Class)” value (Safety Analysis Set)?
The value was 0 n.

What about the “Treatment-related TEAE: Psychiatric disorders (System Organ Class)” value (Safety Analysis Set) of the same compound?
The value was 0 n.

And the “Treatment-related TEAE: Surgical and medical procedures (System Organ Class)” value (Safety Analysis Set)?
Its value is 0 n.

What about the “Treatment-related TEAE: Tachycardia” value (Safety Analysis Set) of the same compound?
Its value is 0 n.

What about the “Treatment-related TEAE: Visual impairment” value (Safety Analysis Set) of the same compound?
The value was 0 n.
